In one series the target is Nurr1:RXRγ heterodimer (Homo sapiens (Human), UniProt P48443). Put plainly: Nurr1:RXRγ luciferase reporter transactivation assay. In kind it is cell-based. The settings on record: SHSY-5Y. As to the method:
Synthesized compounds of the invention and their analogs, shown in Table 1, below, were evaluated for activity in cellular assays. The in vitro transactivation assay determined the capacity of the compounds of the invention to activate the Nurr1:RXR heterodimers. Naive SHSY-5Y cells were transiently co-transfected, using Lipofectamine 2000 (Invitrogen), with a plasmid expressing the human receptor Nurr1, a plasmid expressing the RXR human receptor (RXRα or RXRγ receptor) and a reporter plasmid DR5-TK-Luc. After 24 hours, the culture medium was changed. The test compounds were added (final concentration between 0.5, 2.5 and 12.5 μM) in the culture medium. After incubation overnight, the expression of luciferase was measured (FIG. 1A). Positive control cells were treated with XCT0135908 (1 μM; WO 2005/047268) which induces activation of the Nurr1:RXR heterodimer and results in maximal expression of luciferase. The transcription-activating activities of various compounds of the invention are shown in FIG. 1B, as well as in Table 1, below. […] Furthermore, compound 3 is selective for the Nurr1:RXRα heterodimer over the Nurr1:RXRγ heterodimer (FIG. 1D).

A further series relates to Rat cortical neurons. The series can be described thus: Apoptosis of cortical neurons transfected with LRRK2-G2019S, DAPI staining. The settings on record: rat cortical neurons co-transfected with CMV-GFP and LRRK2-G2019S. It counts as cell-based. The text has this: We examined the neuroprotective capability of Nurr1:RXRα heterodimer activation in SHSY-5Y cells where death was induced by either the oxidative stress related H2O2 or the mitochondria complex I inhibitor MPP+ (1-methyl-4-phenylpyridinium) (FIG. 72B). […] The protection conferred by compound 3 was Nurr1-dependent, since it was abrogated by knocking-down endogenous Nurr1 mRNA (FIGS. 1E and 72D). The neuroprotective effects of compound 3 extend to damage induced by the PD-associated mutation G2019S in the Leucine-Rich Repeat Kinase 2 (LRRK2) gene, the most common genetic defect associated with clinical PD (Tofaris et al. J. Neurosci. 26:3942-3950, 2006). Rat cortical neurons, co-transfected with CMV-GFP for identification, and CMVLRRK2-G2019S cDNAs show increased apoptosis as assessed by DAPI staining, compared to control neurons co-transfected with a LRRK2 wt cDNA.

For a further series, the system named is striatum 5HT levels. Put plainly: Striatal 5-HT and 5-HIAA levels by HPLC-ECD. The settings on record: C57/BL6 mice, IP 20 mg/kg, 4 h post injection. In kind it is in vivo, mouse. As to the method:
We measured striatal 5-HT levels, and we detected 5-HT and 5-HIAA in wild type C57/BL6 mice. 4 hours after dosing animals were killed by cervical dislocation, brains were removed, and the striata were dissected on ice. The samples were immediately frozen and stored at −80° C. until use. The tissues were processed for the analysis by high performance liquid chromatography (HPLC) with an electrochemical detector (ECD) (Emmanouil et al., 2006). The dissected tissues were weighed, homogenized, and deproteinized in 0.2 N perchloric acid solution containing 7.9 mM Na2S2O5 and 1.3 mM Na2EDTA. The homogenate was centrifuged at 37,000×g for 30 minutes, and the supernatant was stored at −80° C. until assayed. A reverse-phase ion-pair chromatography was used in all analyses, and the mobile phase consisted of an acetonitrile-50 mM phosphate buffer at pH 3.0, containing 5-octylsulfate sodium salt (300 mg/L) as the ion-pair reagent and (20 mg/L) Na2EDTA. Reference standards were prepared in 0.2 N perchloric acid solution containing 7.9 mM Na2S2O5 and 1.3 mM Na2EDTA. Samples were quantified by comparison of the areas under the peaks with those of reference standards using HPLC software (Chromatography Station for Windows™, Watrex International Inc., San Francisco, Calif.) (FIG. 3C).

Series [1] concerns the target Nur77GAL4:RXRαVP16 heterodimers (Homo sapiens (Human), UniProt P19793). The series can be described thus: GAL4/VP16 chimera specificity luciferase assay in SHSY-5Y. It counts as cell-based. The conditions noted are these: GAL4-responsive luciferase reporter. An excerpt:
(§1) To test off-target effects of compound 3 on complexes aside from Nurr1:RXRα heterodimers, we fused the ligand binding domains of Nurr1, RXRα and a variety of related nuclear receptors to GAL4 DNA-binding domain to create chimeric proteins, while the ligand-binding domain of RXRα was also fused with VP16. These molecular chimeras were co-transfected in pairs with the RXRα:VP16 along with a GAL4-responsive luciferase reporter in SHSY-5Y, which were stimulated with compound 3. […] The above experiments indicate the high degree of selectivity of compound 3 and point to its neuroprotective potential.

Series [2] is described as follows: Plasma and brain concentrations by LC-MS/MS after IP administration to mice. In kind it is in vivo, mouse. The settings on record: mouse, in vivo, ip. The method, then: FIGS. 68A and 68B show the pharmacokinetic profile of XCT in blood plasma and in the brain of mice injected with this compound. […] Serial tail bleeds (n=3) were used for detection of the compound in plasma 1 and 2 hours after IP administration. Similarly, mice (n=3) were sacrificed 1 and 2 hours after IP administration and brains were dissected. The concentrations of the parent compound in plasma and brain were determined by LC-MS/MS.
The concentrations of the parent compound in plasma and brain were determined by LC/MSMS.
XCT0135908 was administered to mice to test its bioactivity.

The target in series [3] is RXRαVP16 heterodimer chimeras with VDRGAL4 (Homo sapiens (Human), UniProt P19793). Put plainly: GAL4/VP16 chimera specificity luciferase assay in SHSY-5Y. The conditions noted are these: GAL4-responsive luciferase reporter. In kind it is cell-based. The method, then:
Compound 3 specifically activates Nurr1:RXRα heterodimers over other RXR-containing transcription co-activator complexes. Specificity assays fusing DNA sequences of the gal4 DNA binding domain to the nuclear receptor Ligand-Binding-Domain (LDB) and to vp16 were performed as follows: Human SHSY-5Y cells were cotransfected with 20 ng of MH100-tk -luciferase, 10 ng of CMX-bgal, 20 ng of CMX-GAL4-RXRα-LBD and 20 ng of CMX-VP16-NR-LBD, where NR stands for either Nurr1, VDR, PPARγ. CMX-VP16-VDR-LBD and CMX-VP16-PPARγ-LBD were kindly provided by Dr Makishima ([…]). CMX-VP16-Nurr1-LBD was produced by cloning the Nurr1 LBD in the CMX-VP16 vector using KpnI. More specifically, Nurr1-LBD was isolated by PCR from a vector containing the Nurr1 cDNA using a set of primers flanking the Nurr1 LBD sequence and carrying at both sides the KpnI restriction sites, namely Nurr1 Forward […] (SEQ ID NO: 1) and Nurr1 Reverse […] (SEQ ID NO: 2). To exclude the possibility that compound 3 might transactivate RXRγ:Nurr1 heterodimers, CMX-GAL4-RXRγ-LBD was constructed by cloning the RXRγ LBD that was isolated by PCR from a vector containing the RXRγ cDNA (RIKEN, Tokyo, Japan) using the following Forward and Reverse primers carrying KpnI and NheI restriction sites, respectively, namely RXRγ Forward […] (SEQ ID NO: 3) and RXRγ LBD Reverse […] (SEQ ID NO: 4). 17 hours after transfection the compound was added to the medium at the corresponding concentrations and left for another 12 hours. Then the cells were assayed for luciferase activity normalized to galactosidase activity.
as §1
On the technique in general: A reporter such as luciferase makes a cellular process visible.

Sequence of Nurr1:RXRγ heterodimer (P48443 whole entry, looked up): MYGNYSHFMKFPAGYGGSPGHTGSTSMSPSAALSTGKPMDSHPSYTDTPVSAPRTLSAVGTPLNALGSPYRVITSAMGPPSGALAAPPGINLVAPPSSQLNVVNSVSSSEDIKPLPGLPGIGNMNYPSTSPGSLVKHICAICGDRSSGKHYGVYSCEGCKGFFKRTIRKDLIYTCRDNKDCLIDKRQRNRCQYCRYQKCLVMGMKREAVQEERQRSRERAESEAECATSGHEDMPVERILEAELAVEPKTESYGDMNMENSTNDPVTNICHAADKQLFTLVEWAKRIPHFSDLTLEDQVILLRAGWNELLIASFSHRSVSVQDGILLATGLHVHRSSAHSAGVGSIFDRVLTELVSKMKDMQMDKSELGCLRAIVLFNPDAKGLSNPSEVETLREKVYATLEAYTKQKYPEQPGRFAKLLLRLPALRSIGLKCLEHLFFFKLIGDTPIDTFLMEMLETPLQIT
Sequence of Nurr1:RXRγ heterodimer (P43354 whole entry partner, looked up): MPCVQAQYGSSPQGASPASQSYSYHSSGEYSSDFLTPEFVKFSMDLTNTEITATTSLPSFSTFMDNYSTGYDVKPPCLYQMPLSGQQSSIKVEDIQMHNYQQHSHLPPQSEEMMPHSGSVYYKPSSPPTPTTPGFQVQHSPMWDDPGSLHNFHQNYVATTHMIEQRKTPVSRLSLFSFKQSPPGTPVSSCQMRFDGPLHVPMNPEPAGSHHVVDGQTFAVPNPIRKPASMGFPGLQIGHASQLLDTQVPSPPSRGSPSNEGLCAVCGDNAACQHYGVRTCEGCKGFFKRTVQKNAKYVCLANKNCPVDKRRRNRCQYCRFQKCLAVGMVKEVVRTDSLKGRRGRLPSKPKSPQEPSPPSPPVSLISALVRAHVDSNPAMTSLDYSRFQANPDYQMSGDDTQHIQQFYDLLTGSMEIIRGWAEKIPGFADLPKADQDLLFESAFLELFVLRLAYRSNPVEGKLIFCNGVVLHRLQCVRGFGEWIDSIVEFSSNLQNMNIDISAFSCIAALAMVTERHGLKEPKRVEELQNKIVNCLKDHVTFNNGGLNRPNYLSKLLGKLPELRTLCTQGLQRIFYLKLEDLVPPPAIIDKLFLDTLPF
Sequence of RXRαVP16 heterodimer chimeras with VDRGAL4 (P19793 whole entry, looked up, change not shown, the tested form may be a part): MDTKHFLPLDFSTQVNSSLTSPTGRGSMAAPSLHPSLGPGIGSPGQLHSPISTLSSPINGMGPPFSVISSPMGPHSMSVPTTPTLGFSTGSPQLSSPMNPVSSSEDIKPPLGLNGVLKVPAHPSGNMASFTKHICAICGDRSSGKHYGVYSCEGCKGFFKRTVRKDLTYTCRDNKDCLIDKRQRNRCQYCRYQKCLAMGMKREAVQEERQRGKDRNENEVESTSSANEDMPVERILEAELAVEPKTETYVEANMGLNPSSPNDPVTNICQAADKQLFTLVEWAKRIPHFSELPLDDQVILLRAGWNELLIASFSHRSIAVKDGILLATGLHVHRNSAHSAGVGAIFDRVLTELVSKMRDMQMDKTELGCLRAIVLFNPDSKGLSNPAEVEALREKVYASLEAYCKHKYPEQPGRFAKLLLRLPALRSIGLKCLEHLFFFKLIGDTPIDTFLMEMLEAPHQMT
Sequence of RXRαVP16 heterodimer chimeras with VDRGAL4 (P11473 whole entry partner, looked up, the tested form may be a part): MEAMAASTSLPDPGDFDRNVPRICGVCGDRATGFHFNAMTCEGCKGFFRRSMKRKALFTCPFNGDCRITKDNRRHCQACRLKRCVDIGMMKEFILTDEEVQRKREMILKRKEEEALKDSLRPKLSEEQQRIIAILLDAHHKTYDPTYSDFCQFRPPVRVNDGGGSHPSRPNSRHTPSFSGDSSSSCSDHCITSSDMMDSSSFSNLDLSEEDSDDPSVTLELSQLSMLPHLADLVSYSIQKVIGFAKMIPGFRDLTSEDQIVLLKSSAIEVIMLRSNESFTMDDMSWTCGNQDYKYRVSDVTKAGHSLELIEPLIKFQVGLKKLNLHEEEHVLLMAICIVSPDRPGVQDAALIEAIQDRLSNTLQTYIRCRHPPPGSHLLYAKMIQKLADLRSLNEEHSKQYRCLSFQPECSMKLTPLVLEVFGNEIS
Sequence of Nur77GAL4:RXRαVP16 heterodimers (P19793 whole entry, looked up, the tested form may be a part): as the sequence (P19793 whole entry, looked up, change not shown, the tested form may be a part) above
Sequence of Nur77GAL4:RXRαVP16 heterodimers (P22736 whole entry partner, looked up, the tested form may be a part): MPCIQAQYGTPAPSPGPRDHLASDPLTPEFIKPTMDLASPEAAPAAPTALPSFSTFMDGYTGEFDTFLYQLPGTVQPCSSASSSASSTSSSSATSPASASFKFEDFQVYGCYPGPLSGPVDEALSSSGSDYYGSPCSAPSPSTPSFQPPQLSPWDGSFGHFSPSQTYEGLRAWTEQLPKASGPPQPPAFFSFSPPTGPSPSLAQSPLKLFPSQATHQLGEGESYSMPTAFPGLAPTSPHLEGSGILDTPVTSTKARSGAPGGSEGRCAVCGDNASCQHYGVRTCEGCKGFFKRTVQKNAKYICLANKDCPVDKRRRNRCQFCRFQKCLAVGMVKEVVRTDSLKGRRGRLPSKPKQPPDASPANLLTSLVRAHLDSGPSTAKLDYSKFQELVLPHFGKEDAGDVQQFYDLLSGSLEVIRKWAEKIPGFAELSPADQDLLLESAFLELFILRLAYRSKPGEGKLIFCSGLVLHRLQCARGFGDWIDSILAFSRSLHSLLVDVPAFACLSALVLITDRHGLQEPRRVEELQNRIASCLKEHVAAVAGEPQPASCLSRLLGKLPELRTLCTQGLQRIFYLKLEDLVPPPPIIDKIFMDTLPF

Take `C=CCc1c(N(C)c2ccc(C(=O)O)cc2)nc(-c2ccccc2)nc1C(F)(F)F` [Example 3, 4-((5-allyl-2-phenyl-6-(trifluoromethyl)pyrimidin-4-yl)(methyl)amino)benzoic acid]: the “activation of Nurr1:RXRγ heterodimers” value at Nurr1:RXRγ heterodimer is “did not activate”. Also, the “apoptosis induced by LRRK2-G2019S” value with Rat cortical neurons is recorded as “reduced apoptosis to control levels”. Moreover, the “striatum 5HT levels and 5HT metabolite 5HIAA levels” value with striatum 5HT levels is “increased”. Besides, the “activation of Nur77GAL4:RXRαVP16 heterodimers” value in series [1] is “partially activated”. Besides, in series [2], the brain penetration result is “reaching the brain”. In series [2] (1 mg/kg), the half-life was roughly 120 min. In series [3], the “activation of VDRGAL4:RXRαVP16 chimeras” value was “failed to activate”.

In general, half-life refers to the time in which the quantity being followed falls by half. Low readings indicate fast loss, high ones slow loss.

The record behind these values is patent US10946019B2, “Nurr1:RXR activating compounds for simultaneous treatment of symptoms and pathology of Parkinson's disease” (priority 2015, dated 2021).
